Source: PubChem BioAssay AID743502 (Broad Institute, 2014)
Calls of active or inactive are those of the source.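 The calls were made as follows: active = IC50 under 35 µM against the melanocortin-4 receptor MC4R counterscreen signal; inactive = IC50 above 35 µM.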

system: HEK293 transfected MC4R, CRE-luciferase, beta-gal normalized; assay: inhibition of alpha-MSH-driven MC4R cAMP reporter – cell-based, HEK293, beta-gal normalized, luminescence, dry powder, counter-screen for LGR2 antagonist project, dose response (AID 743502)

Question: Which IC50 does the source give for `C[C@@H]1CN([C@@H](C)CO)C(=O)c2cc(NC(=O)C3CCCCC3)ccc2O[C@@H](C)CCCCO[C@H]1CN(C)C(=O)Nc1cccc2ccccc12` here?
Answer: > 35 µM (inactive)

Question: How did the IC50 turn out when `C[C@H](CO)N1C[C@H](C)[C@H](CN(C)C(=O)Nc2ccccc2F)OCCCC[C@H](C)Oc2ccc(NC(=O)C3CCCCC3)cc2C1=O` was run?
Answer: > 35 µM (inactive)

Question: How did the IC50 turn out when `C[C@H](CO)N1C[C@H](C)[C@H](CN(C)C(=O)Nc2cccc3ccccc23)OCCCC[C@H](C)Oc2ccc(NC(=O)C3CCCCC3)cc2C1=O` was run?
Answer: > 35 µM (inactive)

Question: `Cc1ccc(NC(=O)N(C)C[C@@H]2OCCCC[C@H](C)Oc3ccc(NC(=O)C4CCCCC4)cc3C(=O)N([C@H](C)CO)C[C@@H]2C)cc1` was tested. Which IC50 did it give?
Answer: > 35 µM (inactive)

Question: With `C[C@H](CO)N1C[C@H](C)[C@H](CN(C)C(=O)Nc2ccc(F)cc2)OCCCC[C@H](C)Oc2ccc(NC(=O)C3CCCCCC3)cc2C1=O` as the molecule, how does the IC50 read?
Answer: > 35 µM (inactive)

Question: With `C[C@H]1CCCCO[C@@H](CN(C)C(=O)Nc2cccc3ccccc23)[C@@H](C)CN([C@@H](C)CO)C(=O)c2cc(NC(=O)C3CCCCC3)ccc2O1` as the molecule, how does the IC50 read?
Answer: > 35 µM (inactive)

Question: How did the IC50 turn out when `C[C@H](CO)N1C[C@H](C)[C@H](CN(C)C(=O)Nc2ccc(F)cc2)OCCCC[C@H](C)Oc2ccc(NC(=O)C3CCCC3)cc2C1=O` was run?
Answer: > 35 µM (inactive)

Question: `C[C@H](CO)N1C[C@H](C)[C@H](CN(C)C(=O)Nc2cccc(F)c2)OCCCC[C@H](C)Oc2ccc(NC(=O)C3CCCCC3)cc2C1=O` was tested. Which IC50 did it give?
Answer: > 35 µM (inactive)

Question: For `C[C@H](CO)N1C[C@H](C)[C@H](CN(C)C(=O)Nc2ccc(Cl)cc2)OCCCC[C@H](C)Oc2ccc(NC(=O)C3CCCCC3)cc2C1=O`, which IC50 is on record?
Answer: > 35 µM (inactive)

Question: For `C[C@H](CO)N1C[C@H](C)[C@H](CN(C)C(=O)Nc2ccc3ccccc3c2)OCCCC[C@H](C)Oc2ccc(NC(=O)C3CCCCC3)cc2C1=O`, which IC50 is on record?
Answer: > 35 µM (inactive)
